{"source": "patent US20230117920A1", "about": "“Library Construction Method, Cyclic Peptide, FXIIa Binder and IFNGR1 Binder” (The University of Tokyo, priority 2019, published 2023)", "key": {"[1]": {"molecular_target": "human factor XIIa (FXIIa) (Homo sapiens, UniProt P00748)", "assay": "biochemical", "conditions": "for kon: read-out: ka"}, "FXIIa [2]": {"molecular_target": "T1, FXIIa (Homo sapiens, UniProt P00748)", "assay": "biochemical"}, "[3]": {"molecular_target": "T2, interferon γ receptor 1 (IFNGR1) (Homo sapiens, UniProt P15260)", "conditions": "SPR, 25° C., 1:1 interaction model"}, "[4]": {"molecular_target": "T2, interferon γ receptor 1 (IFNGR1)", "assay": "biochemical", "conditions": "read-out: ka"}, "FXIIa [5]": {"molecular_target": "T1, FXIIa", "conditions": "reference protein inhibitor against FXIIa; cited from earlier work"}, "[6]": {"molecular_target": "human factor XIIa (activated blood coagulation factor XII) (human) (UniProt P00748)", "assay": "SPR, Biacore T200, 25 C, single cycle kinetics, 1:1 model"}, "[7]": {"molecular_target": "T3, human factor XIIa (activated blood coagulation factor XII) (human, UniProt P00748 20-615, limits assumed, biotinylated (site not stated))", "T3 construct": "The construct used for SPR, for the Ki assay and for the cocrystal is not described; The same entry is used for all three; also called FXIIa; FXIIA", "T3 sequence (looked up)": "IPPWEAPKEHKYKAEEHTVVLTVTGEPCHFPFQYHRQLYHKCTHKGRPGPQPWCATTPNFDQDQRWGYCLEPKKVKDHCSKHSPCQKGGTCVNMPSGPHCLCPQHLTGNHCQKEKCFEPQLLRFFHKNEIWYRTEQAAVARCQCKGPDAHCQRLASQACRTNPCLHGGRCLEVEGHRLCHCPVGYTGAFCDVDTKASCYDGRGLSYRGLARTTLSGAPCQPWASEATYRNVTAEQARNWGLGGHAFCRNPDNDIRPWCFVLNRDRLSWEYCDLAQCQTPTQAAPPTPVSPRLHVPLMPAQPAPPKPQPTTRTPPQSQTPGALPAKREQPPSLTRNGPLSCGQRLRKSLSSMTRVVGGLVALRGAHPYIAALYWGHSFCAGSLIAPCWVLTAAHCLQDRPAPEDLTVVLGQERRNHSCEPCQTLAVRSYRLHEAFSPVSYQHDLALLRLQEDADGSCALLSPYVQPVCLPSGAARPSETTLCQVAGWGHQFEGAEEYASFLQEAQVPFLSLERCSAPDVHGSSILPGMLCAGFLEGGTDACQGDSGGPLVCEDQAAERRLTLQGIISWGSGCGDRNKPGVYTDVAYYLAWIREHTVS", "assay": "SPR, Biacore T200, 25 C, single cycle kinetics, 1:1 model"}, "[8]": {"molecular_target": "T3, human factor XIIa (activated blood …)", "assay": "SPR, Biacore T200, 25 C, single cycle kinetics, 1:1 model; peptide F2A (drawing CHEM-US-00044, read number 0), control variant of F2"}, "[9]": {"molecular_target": "T3, human factor XIIa (activated blood …)", "assay": "inhibition of FXIIa cleavage of the chromogenic substrate S-2302 (H-D-Pro-Phe-Arg-pNA), absorbance at 405 nm"}}, "note": "Read-outs that look alike come from different tables or passages of the source. Starred links: 1 amine or outer side, 2 acyl side, 3 side chain; linkers in the order of their positions; H or OH if unused. Positions of bridges follow the written chain, without caps; N, C: chain ends. Non-standard residues stand in square brackets, D forms with d. Residues, ends and D or L forms follow the SMILES beside them. No end group written: not given here. ACHC(1S,2S) = O=C([C@H]1CCCC[C@@H]1N[*:1])[*:2]; X1 = O=C([C@@H]1CCC[C@H]1N[*:1])[*:2]"}
{"molecule": "CC(C)C[C@@H]1NC(=O)[C@H](CCCNC(=N)N)NC(=O)[C@@H]2CCC[C@H]2NC(=O)[C@H](CCCNC(=N)N)NC(=O)[C@H]([C@@H](C)O)NC(=O)[C@H](CO)NC(=O)[C@H](CCCNC(=N)N)NC(=O)[C@H](CC(=O)O)NC(=O)[C@H](CC(N)=O)NC(=O)[C@@H](Cc2ccc(O)cc2)NC(=O)CSC[C@H](C(=O)NCC(N)=O)NC(=O)[C@H](C)NC(=O)[C@H](C(C)C)NC1=O", "note": "[F1] ({CH2CO}-[dY]NDRSTR[X1]RLVA[dC]G-NH2; thioether N-13)", "values": [{"measurement": "Kd", "setting": "[1]", "value": 8.21, "unit": "nM"}, {"measurement": "kon", "setting": "[1]", "value": "2.74e+06", "unit": "M⁻¹ s⁻¹"}, {"measurement": "Ki", "setting": "FXIIa [2]", "value": 22.1, "unit": "nM"}]}
{"molecule": "CC(C)C[C@@H]1NC(=O)[C@H](Cc2ccc(O)cc2)NC(=O)[C@H](CO)NC(=O)[C@H](C)NC(=O)[C@H](CC(N)=O)NC(=O)[C@H](Cc2ccccc2)NC(=O)[C@H](CC(C)C)NC(=O)[C@H](CCCNC(=N)N)NC(=O)[C@@H]2CCCN2C(=O)[C@@H](Cc2ccc(O)cc2)NC(=O)CSC[C@H](C(N)=O)NC(=O)[C@H](CCCNC(=N)N)NC(=O)[C@H](CCCNC(=N)N)NC1=O", "note": "[F2A] ({CH2CO}-[dY]PRLFNASYLRR[dC]-NH2; thioether N-13)", "values": [{"measurement": "kon", "setting": "[1]", "value": "4.75e+06", "unit": "M⁻¹ s⁻¹"}]}
{"molecule": "CC(C)C[C@@H]1NC(=O)[C@H](Cc2ccc(O)cc2)NC(=O)[C@H](CO)NC(=O)[C@@H]2CCC[C@H]2NC(=O)[C@H](CC(N)=O)NC(=O)[C@H](Cc2ccccc2)NC(=O)[C@H](CC(C)C)NC(=O)[C@H](CCCNC(=N)N)NC(=O)[C@@H]2CCCN2C(=O)[C@@H](Cc2ccc(O)cc2)NC(=O)CSC[C@H](C(=O)NCC(N)=O)NC(=O)[C@H](CCCNC(=N)N)NC(=O)[C@H](CCCNC(=N)N)NC1=O", "note": "[F2] ({CH2CO}-[dY]PRLFN[X1]SYLRR[dC]G-NH2; thioether N-13)", "values": [{"measurement": "Kd", "setting": "[1]", "value": 0.58, "unit": "nM"}, {"measurement": "kon", "setting": "[1]", "value": "3.07e+07", "unit": "M⁻¹ s⁻¹"}, {"measurement": "Ki", "setting": "FXIIa [2]", "value": 2.14, "unit": "nM"}]}
{"molecule": "CC(C)C[C@@H]1NC(=O)[C@H]2CCCC[C@@H]2NC(=O)[C@H](CCCNC(=N)N)NC(=O)[C@H](CCCNC(=N)N)NC(=O)[C@H](CC(=O)O)NC(=O)[C@H](Cc2ccc(O)cc2)NC(=O)[C@H](C)NC(=O)[C@H](Cc2ccccc2)NC(=O)[C@@H](Cc2ccc(O)cc2)NC(=O)CSC[C@H](C(=O)NCC(N)=O)NC(=O)[C@H](Cc2ccc(O)cc2)NC(=O)[C@H](CC(N)=O)NC(=O)[C@H](CCCNC(=N)N)NC(=O)[C@H]2CCCC[C@@H]2NC(=O)[C@H](CC(N)=O)NC(=O)[C@H](CC(N)=O)NC(=O)[C@H](CO)NC1=O", "note": "[F3] ({CH2CO}-[dY]FAYDRR[ACHC(1S,2S)]LSNN[ACHC(1S,2S)]RNY[dC]G-NH2; thioether N-17)", "values": [{"measurement": "kon", "setting": "[1]", "value": "1.59e+06", "unit": "M⁻¹ s⁻¹"}]}
{"molecule": "CC(C)C[C@@H]1NC(=O)[C@H](CCCNC(=N)N)NC(=O)[C@H](CC(N)=O)NC(=O)[C@H]2CCCC[C@@H]2NC(=O)[C@H]([C@@H](C)O)NC(=O)[C@H](Cc2ccc(O)cc2)NC(=O)[C@H](CCCNC(=N)N)NC(=O)[C@@H](Cc2ccc(O)cc2)NC(=O)CSC[C@H](C(=O)NCC(N)=O)NC(=O)[C@H](C)NC(=O)[C@H](CC(N)=O)NC(=O)[C@H]2CCCC[C@@H]2NC(=O)[C@H](Cc2ccccc2)NC1=O", "note": "[F4] ({CH2CO}-[dY]RYT[ACHC(1S,2S)]NRLF[ACHC(1S,2S)]NA[dC]G-NH2; thioether N-13)", "values": [{"measurement": "Kd", "setting": "[1]", "value": 15.5, "unit": "nM"}, {"measurement": "kon", "setting": "[1]", "value": 550000, "unit": "M⁻¹ s⁻¹"}, {"measurement": "Ki", "setting": "FXIIa [2]", "value": 4.32, "unit": "nM"}]}
{"molecule": "CC(C)[C@@H]1NC(=O)CNC(=O)[C@H](Cc2ccccc2)NC(=O)[C@@H](Cc2ccc(O)cc2)NC(=O)CSC[C@H](C(N)=O)NC(=O)[C@H]([C@@H](C)O)NC(=O)[C@H](CCCNC(=N)N)NC(=O)[C@H](CC(N)=O)NC(=O)[C@H](Cc2ccc(O)cc2)NC(=O)[C@H](Cc2ccccc2)NC(=O)[C@H](C)NC(=O)[C@H](CCCNC(=N)N)NC1=O", "note": "[I1-1A] ({CH2CO}-[dY]FGVRAFYNRT[dC]-NH2; thioether N-12)", "values": [{"measurement": "kd", "setting": "[3]", "value": "4.12 10^−2 · s^−1"}, {"measurement": "kon", "setting": "[4]", "value": 20000, "unit": "M⁻¹ s⁻¹"}]}
{"molecule": "corn trypsin inhibitor [CTI]", "values": [{"measurement": "Ki", "setting": "FXIIa [5]", "value": 24, "unit": "nM"}]}
{"molecule": "YRYTXNRLFXNAC (not fully specified; 1: D-Tyr, N-acetylated (from N-chloroacetyl-D-Tyr), thioether to D-Cys 13 (cyclic peptide); 5 and 10 (X, printed '1'): (1S,2S)-2-ACHC; 13: D-Cys)", "note": "[F4]", "values": [{"measurement": "koff", "setting": "[6]", "value": 0.0085, "unit": "s⁻¹"}]}
{"molecule": "YNDRSTRXRLVAC (not fully specified; 1: D-Tyr, N-acetylated (from N-chloroacetyl-D-Tyr), the acetyl joined by a thioether bond to the thiol of D-Cys 13 (cyclic peptide); 8 (X, printed '2'): (1R,2R)-2-ACPC; 13: D-Cys)", "note": "[F1]", "values": [{"measurement": "koff", "setting": "[6]", "value": 0.0225, "unit": "s⁻¹"}]}
{"molecule": "{CH2CO}-[dY]PRLFNASYLRR[dC] (thioether N-13, also called negative control peptide of F2)", "note": "[F2A]", "values": [{"measurement": "koff", "setting": "[7]", "value": 0.438, "unit": "s⁻¹"}, {"measurement": "Kd", "setting": "[8]", "value": 92.2, "unit": "nM"}]}
{"molecule": "{CH2CO}-[dY]NDRSTRARLVA[dC] (thioether N-13, also called negative control peptide of F1; Ala mutant F1A)", "note": "[F1A]", "values": [{"measurement": "Kd", "setting": "[7]", "value": 51.3, "unit": "nM"}, {"measurement": "koff", "setting": "[7]", "value": 0.0297, "unit": "s⁻¹"}]}
{"molecule": "{CH2CO}-[dY]FAYDRR[ACHC(1S,2S)]LSNN[ACHC(1S,2S)]RNY[dC] (thioether N-17, Made by solid-phase synthesis with the C-terminal TGTGT linker omitted; The formula f3 in the summary and claims ends in RNT; also called yFAYDRR1LSNN1RNYc)", "note": "[F3]", "values": [{"measurement": "Kd", "setting": "[7]", "value": 0.98, "unit": "nM"}, {"measurement": "koff", "setting": "[7]", "value": 0.0016, "unit": "s⁻¹"}, {"measurement": "Ki", "setting": "[9]", "value": 1.02, "unit": "nM"}]}
{"molecule": "YPRLFNXSYLRRC (not fully specified; 1: D-Tyr, N-acetylated (from N-chloroacetyl-D-Tyr), thioether to D-Cys 13 (cyclic peptide); 7 (X, printed '2'): (1R,2R)-2-ACPC; 13: D-Cys)", "note": "[F2]", "values": [{"measurement": "koff", "setting": "[6]", "value": 0.0178, "unit": "s⁻¹"}]}
